Among the data in patent publication US12030879B2, “Sulfonyl acetamides as NLRP3 inhibitors” (Inflazome Limited, priority 2018, dated 2024) are IC50 values, retold here.

Counter-ions that a name gives are not always drawn.

The target in the assay is T1, NLRP3 (Homo sapiens, UniProt Q96P20).
T1 construct: Seed THP-1 cells (25,000 cells/well) containing 1.0 μg/ml LPS in 40 μl of RPMI medium; host or cells: THP-1 cells
Kind of assay: THP-1 cells pyroptosis assay. Type of assay: cell-based. To be noted: LPS 1 μg/ml, compound 3 hrs, nigericin 5 μM 1 hr, resazurin readout. The gist of the method: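 LPS-primed (1 μg/ml) THP-1 cells in serum-free RPMI were treated 3 h with compound (8-point half-log, top 10 μM; 0.1% DMSO), then with 5 μM nigericin for 1 h at 37°C. Viability was read by 100 μM resazurin (ex 560/em 590 nm) after 1–2 h. IC50 came from 4-parameter nonlinear regression.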
In general terms: Alamar Blue is a resazurin reagent that responds to reducing activity.

T1 sequence (Q96P20 whole entry): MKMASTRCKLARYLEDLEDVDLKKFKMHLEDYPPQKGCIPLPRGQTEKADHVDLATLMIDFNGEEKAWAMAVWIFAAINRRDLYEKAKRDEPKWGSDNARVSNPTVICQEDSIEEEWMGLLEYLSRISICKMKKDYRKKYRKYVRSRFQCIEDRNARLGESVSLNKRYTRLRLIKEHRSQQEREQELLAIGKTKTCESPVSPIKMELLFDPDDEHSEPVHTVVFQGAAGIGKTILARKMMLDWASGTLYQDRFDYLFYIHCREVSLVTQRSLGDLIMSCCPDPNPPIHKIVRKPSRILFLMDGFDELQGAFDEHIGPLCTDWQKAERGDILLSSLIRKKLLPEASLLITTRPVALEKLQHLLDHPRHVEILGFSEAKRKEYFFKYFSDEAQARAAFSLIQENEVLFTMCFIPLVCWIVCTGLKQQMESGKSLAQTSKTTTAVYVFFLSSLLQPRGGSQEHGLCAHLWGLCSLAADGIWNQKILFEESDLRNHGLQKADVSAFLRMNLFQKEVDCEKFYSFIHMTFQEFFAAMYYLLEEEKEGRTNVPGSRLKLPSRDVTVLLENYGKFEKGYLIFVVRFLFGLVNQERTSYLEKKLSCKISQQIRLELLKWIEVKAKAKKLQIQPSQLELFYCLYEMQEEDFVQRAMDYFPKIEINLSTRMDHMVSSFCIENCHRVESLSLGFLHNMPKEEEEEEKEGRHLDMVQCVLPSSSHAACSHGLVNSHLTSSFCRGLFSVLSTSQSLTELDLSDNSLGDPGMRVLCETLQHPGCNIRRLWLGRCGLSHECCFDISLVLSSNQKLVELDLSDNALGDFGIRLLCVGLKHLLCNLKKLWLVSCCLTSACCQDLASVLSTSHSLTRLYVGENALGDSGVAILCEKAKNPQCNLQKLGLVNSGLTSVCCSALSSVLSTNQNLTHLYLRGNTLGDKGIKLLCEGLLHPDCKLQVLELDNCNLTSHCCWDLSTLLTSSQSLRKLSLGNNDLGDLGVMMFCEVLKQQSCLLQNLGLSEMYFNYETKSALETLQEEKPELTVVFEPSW

For the compound `COc1cc(-c2cc(F)cc(C(C)C)c2CC(=O)NS(=O)(=O)c2nnc(NC(C)=O)s2)ccn1` [Example 138], the 50% inhibitory concentration (IC50) – broadly, the midpoint of a concentration-inhibition curve – was at most 10 µM.

The compound `Cc1cc(C(C)(C)O)ccc1S(=O)(=O)NC(=O)Cc1c(-c2ccncc2)cc(F)cc1C(C)C` [Example 186] displayed a concentration for half-maximal inhibition (IC50) of at most 0.5 µM.

In turn, `COc1cc(-c2cc(F)cc(C(C)C)c2CC(=O)NS(=O)(=O)c2ccn(C(C)(C)CO)n2)ccn1` [Example 195] registered an IC50 of at most 5 µM.

`COc1cc(-c2cc(F)cc(C(C)C)c2CC(=O)NS(=O)(=O)c2ccc(C(C)(C)O)cc2)ccn1` [Example 80, 2-(4-Fluoro-2-isopropyl-6-(2-methoxypyridin-4-yl)phenyl)-N-((4-(2-hydroxypropan-2-yl)phenyl)sulfonyl)acetamide] returned an IC50 of at most 5 µM. Turning to `COc1cc(-c2cc(F)cc(C(C)C)c2CC(=O)NS(=O)(=O)CCCC(C)(C)O)ccn1` [Example 78, 2-(4-Fluoro-2-isopropyl-6-(2-methoxypyridin-4-yl)phenyl)-N-((4-hydroxy-4-methylpentyl)sulfonyl)acetamide], the IC50 is at most 10 µM.

`COc1cc(-c2cc(F)cc(C(C)C)c2CC(=O)NS(=O)(=O)c2c(C)nn(CC(F)F)c2C)ccn1` [Example 175] had an IC50 of at most 5 µM. `COc1cc(-c2cc(F)cc(C(C)C)c2CC(=O)NS(=O)(=O)c2ccc(C(=O)N(C)C)c(Cl)c2)ccn1` [Example 96, 2-Chloro-4-(N-(2-(4-fluoro-2-isopropyl-6-(2-methoxypyridin-4-yl)phenyl)acetyl)sulfamoyl)-N,N-dimethylbenzamide] registered a half-inhibitory concentration (IC50) of at most 10 µM. The same measure for `COc1cc(-c2cc(F)cc(C(C)C)c2CC(=O)NS(=O)(=O)c2ccc(Cl)cc2)ccn1` [Example 93, N-((4-Chlorophenyl)sulfonyl)-2-(4-fluoro-2-isopropyl-6-(2-methoxypyridin-4-yl)phenyl)acetamide]: at most 1 µM; for `COc1cc(-c2cc(F)cc(C(C)C)c2CC(=O)NS(=O)(=O)c2sccc2C(C)(C)O)ccn1` [Example 8]: at most 10 µM; for `COc1cc(-c2cc(F)cc(C(C)C)c2CC(=O)NS(=O)(=O)c2cn(C(C)C)nc2C)ccn1` [Example 173]: at most 0.5 µM. For `CC(C)c1cc(F)cc(-c2ccncc2)c1CC(=O)NS(=O)(=O)c1ccc(Cl)cc1` [Example 16], the IC50 is at most 5 µM. The same measure for `COc1cc(-c2cc(F)cc(C(C)C)c2CC(=O)NS(=O)(=O)c2cc(C(=O)N(C)C)c(C)s2)ccn1` [Example 174]: at most 0.5 µM. The same measure for `COc1cc(-c2cc(F)cc(C(C)C)c2CC(=O)NS(=O)(=O)c2cncc(N(C)C)n2)ccn1` [Example 191]: at most 1 µM. In the case of `COc1cc(-c2ccc3c(c2CC(=O)NS(=O)(=O)c2cc(C(C)C)c(F)cc2F)CCC3)ccn1` [Example 204], the IC50 was at most 5 µM. In the case of `COc1cc(-c2cc(F)cc(C(C)C)c2CC(=O)NS(=O)(=O)c2ccc(C)c(C)c2)ccn1` [Example 122], the IC50 was at most 0.5 µM. The same measure for `COc1cc(-c2cc(F)cc(C(C)C)c2C(F)C(=O)NS(=O)(=O)c2cc(C(C)(C)O)co2)ccn1` (stereo not shown) [Example 103, 2-Fluoro-2-(4-fluoro-2-isopropyl-6-(2-methoxypyridin-4-yl)phenyl)-N-((4-(2-hydroxypropan-2-yl)furan-2-yl)sulfonyl)acetamide]: at most 10 µM; for `CC(C)c1cc(F)cc(-c2cccnc2)c1CC(=O)NS(=O)(=O)c1ccn(C(C)C)n1` [Example 24, 2-(4-Fluoro-2-isopropyl-6-(pyridin-3-yl)phenyl)-N-((1-isopropyl-1H-pyrazol-3-yl)sulfonyl)acetamide, potassium salt]: at most 10 µM. In turn, `COc1cc(-c2cc(F)cc(C(C)C)c2CC(=O)NS(=O)(=O)c2cc(C(C)(C)O)cs2)ccn1` [Example 26, 2-(4-Fluoro-2-isopropyl-6-(2-methoxypyridin-4-yl)phenyl)-N-((4-(2-hydroxypropan-2-yl)thiophen-2-yl)sulfonyl)acetamide] had an IC50 of at most 0.5 µM. For the compound `COc1cc(-c2cc(F)cc(C(C)C)c2CC(=O)NS(=O)(=O)c2cnn(CC(C)(C)O)c2)ccn1` [Example 193], the IC50 is at most 5 µM.

The compound `COc1cc(-c2cc(F)cc(C(C)C)c2CC(=O)NS(=O)(=O)N(C)C2CCN(C)C2)ccn1` (stereo not shown) [Example 76, 2-(4-Fluoro-2-isopropyl-6-(2-methoxypyridin-4-yl)phenyl)-N—(N-methyl-N-(1-methylpyrrolidin-3-yl)sulfamoyl)acetamide] showed an IC50 of at most 5 µM. `COc1cc(-c2cc(F)cc(C(C)C)c2CC(=O)NS(=O)(=O)c2ccc(C(C)(C)O)c(F)c2)ccn1` [Example 84, 2-(4-Fluoro-2-isopropyl-6-(2-methoxypyridin-4-yl)phenyl)-N-((3-fluoro-4-(2-hydroxypropan-2-yl)phenyl)sulfonyl)acetamide]: the IC50 is at most 1 µM. Turning to `COCC(C)(C)n1ccc(S(=O)(=O)NC(=O)Cc2c(-c3ccnc(OC)c3)cc(F)cc2C(C)C)n1` [Example 194], the IC50 is at most 5 µM. The compound `CC(C)c1cc(F)cc(-c2cccnc2)c1CC(=O)NS(=O)(=O)c1cc(C(C)(C)O)cs1` [Example 25, 2-(4-Fluoro-2-isopropyl-6-(pyridin-3-yl)phenyl)-N-((4-(2-hydroxypropan-2-yl)thiophen-2-yl)sulfonyl)acetamide] had an IC50 of at most 0.5 µM. Compound `COc1cc(-c2cc(F)cc(C(C)C)c2CC(=O)NS(=O)(=O)c2ccc(C(=O)N(C)C)cc2C)ccn1` [Example 15] came in with an IC50 of at most 5 µM.

As for `COc1cc(-c2cc(F)cc(C(C)C)c2CC(=O)NS(=O)(=O)c2cc(N(C)C)ccc2C)ccn1` [Example 153], the half-maximal inhibitory concentration (IC50) was at most 5 µM. The same measure for `CC(C)c1cc(F)cc(-c2ccncc2)c1CC(=O)NS(=O)(=O)c1cc(C(C)(C)O)cs1` [Example 27, 2-(4-Fluoro-2-isopropyl-6-(pyridin-4-yl)phenyl)-N-((4-(2-hydroxypropan-2-yl)thiophen-2-yl)sulfonyl)acetamide, potassium salt]: at most 0.5 µM. The same measure for `COc1cc(-c2cc(F)cc(C(C)C)c2CC(=O)NS(=O)(=O)c2cccc(CN(C)C)c2)ccn1` [Example 180]: at most 5 µM; for `COc1ccc(-c2cc(F)cc(C(C)C)c2CC(=O)NS(=O)(=O)c2cc(C(C)(C)O)cs2)cn1` [Example 145]: at most 0.5 µM.

Compound `CC(C)c1cc(F)cc(-c2ccncc2)c1CC(=O)NS(=O)(=O)c1cc(C(=O)N(C)C)n(C)n1` [Example 60, 3-(N-(2-(4-Fluoro-2-isopropyl-6-(pyridin-4-yl)phenyl)acetyl)sulfamoyl)-N,N,1-trimethyl-1H-pyrazole-5-carboxamide] displayed an IC50 of at most 5 µM. The same measure for `COc1cc(-c2cc(F)cc(C(C)C)c2CC(=O)NS(=O)(=O)c2ccc(=O)n(C(C)C)c2)ccn1` [Example 2, 2-(4-Fluoro-2-isopropyl-6-(2-methoxypyridin-4-yl)phenyl)-N-((1-isopropyl-6-oxo-,6-dihydropyridin-3-yl)sulfonyl)acetamide, potassium salt]: at most 5 µM; for `COc1cc(-c2cc(F)cc(C(C)C)c2CC(=O)NS(=O)(=O)c2ccc(CCNC(C)=O)cc2)ccn1` [Example 130]: at most 5 µM. `COc1cc(-c2cc(F)cc(C(C)C)c2CC(=O)NS(=O)(=O)c2cc(C(C)C)ccc2C)ccn1` [Example 206] gave an IC50 of at most 0.5 µM. `COc1cc(-c2cc(F)cc(C(C)C)c2CC(=O)NS(=O)(=O)c2cc(C(C)(C)O)nn2C)ccn1` [Example 160] yielded an IC50 of at most 5 µM. Compound `COc1cc(-c2cc(F)cc(C(C)C)c2CC(=O)NS(=O)(=O)c2ccc(CN(C)C)cc2)ccn1` [Example 31, N-((4-((Dimethylamino)methyl)phenyl)sulfonyl)-2-(4-fluoro-2-isopropyl-6-(2-methoxypyridin-4-yl)phenyl)acetamide, potassium salt] gave an IC50 of at most 5 µM. The same measure for `COc1cc(-c2cc(F)cc(C(C)C)c2CC(=O)NS(=O)(=O)c2nc(C)cc(C)n2)ccn1` [Example 188]: at most 10 µM; for `COc1cc(-c2cc(F)cc(C(C)C)c2CC(=O)NS(=O)(=O)c2ccc(Cl)c(F)c2)ccn1` [Example 135]: at most 5 µM.

`COc1cc(-c2cc(F)cc(C(C)C)c2CC(=O)NS(=O)(=O)c2ccc(CCN(C)C)cc2)ccn1` [Example 177]: the IC50 is at most 5 µM. The same measure for `COc1cc(-c2cc(F)cc(C(C)C)c2CC(=O)NS(=O)(=O)c2ccc(C(C)(C)O)c(Cl)c2)ccn1` [Example 98, N-((3-Chloro-4-(2-hydroxypropan-2-yl)phenyl)sulfonyl)-2-(4-fluoro-2-isopropyl-6-(2-methoxypyridin-4-yl)phenyl)acetamide]: at most 0.5 µM; for `COc1cc(-c2cc(F)cc(C(C)C)c2CC(=O)NS(=O)(=O)c2nn(C)/c(=N\C(C)=O)s2)ccn1` [Example 131]: at most 5 µM.

For `CCC(C)(O)c1ccc(S(=O)(=O)NC(=O)Cc2c(-c3ccnc(OC)c3)cc(F)cc2C(C)C)cc1F` (stereo not shown) [Example 179], the IC50 was at most 0.5 µM. `CC(C)c1cc(F)cc(-c2cccnc2)c1CC(=O)NS(=O)(=O)c1ncc(C(C)(C)O)s1` [Example 143] registered an IC50 of at most 1 µM. `C=C(C)c1csc(S(=O)(=O)NC(=O)Cc2c(-c3ccnc(OC)c3)cc(F)cc2C(C)C)c1` [Example 150]: the concentration for half-maximal inhibition (IC50) was at most 0.5 µM. The same measure for `COc1cc(-c2cc(F)cc(C(C)C)c2CC(=O)NS(=O)(=O)c2ccc(C(C)(C)N)c(F)c2)ccn1` [Example 83, N-((4-(2-Aminopropan-2-yl)-3-fluorophenyl)sulfonyl)-2-(4-fluoro-2-isopropyl-6-(2-methoxypyridin-4-yl)phenyl)acetamide]: at most 5 µM. The same measure for `C=C(C)c1ccc(C)c(S(=O)(=O)NC(=O)Cc2c(-c3ccnc(OC)c3)cc(F)cc2C(C)C)c1` [Example 209]: at most 0.5 µM; for `COc1cc(-c2cc(F)cc(C(C)C)c2CC(=O)NS(=O)(=O)c2ccc(Br)cc2C)ccn1` [Example 129]: at most 1 µM; for `COc1cc(-c2cc(F)cc(C(C)C)c2CC(=O)NS(=O)(=O)c2cncc(C(C)(C)O)c2)ccn1` [Example 198]: at most 0.5 µM.
